In patent US7776848B2, “Spirocyclic cyclohexane compounds” (Gruenenthal GmbH, priority 2004, dated 2010) one finds inhibition data, which are given here for 24 molecules.

Counter-ions that a name gives are not always drawn.

Experiment [1] addresses T1, NA uptake (noradrenaline reuptake), synaptosomes from hypothalamus of male rat brains (Rattus norvegicus, UniProt Q63380).
T1 construct: synaptosomes are freshly isolated from areas of rat brain; from tissue; host or cells: synaptosomes (P2 fraction) from hypothalamus of male rat brains
The experiment is described as follows: Noradrenaline reuptake inhibition (NA uptake inhibition) in rat brain synaptosomes. Format: biochemical. On the procedure: b) Studies of Noradrenaline Reuptake Inhibition (NA Uptake Inhibition)
In order to be able to carry out these in vitro studies, synaptosomes are freshly isolated from areas of rat brain. A so-called “P2” fraction is used in each case, which is prepared according to the procedure of Gray and Whittaker (E. G. Gray and V. P. Whittaker (1962) J. Anat. 76, 79-88). For NA uptake, these vesicular particles are isolated from the hypothalamus of male rat brains. A detailed description of the method can be found in the literature (M. Ch. Frink, H.-H. Hennies, W. Englberger, M. Haurand and B. Wilffert (1996) Arzneim.-Forsch./Drug Res. 46 (III), 11, 1029-1036).

Experiment [2] has as its target T2, 5HT uptake (serotonin reuptake), synaptosomes from hypothalamus of male rat brains (Rattus norvegicus, UniProt P31652).
T2 construct: synaptosomes are freshly isolated from areas of rat brain; from tissue; host or cells: synaptosomes (P2 fraction) from hypothalamus of male rat brains
The experiment is described as follows: Serotonin reuptake inhibition (5HT uptake inhibition) in rat brain synaptosomes. Format: biochemical. The method, then: Biological Testing a) Studies of Serotonin Reuptake Inhibition (5HT Uptake Inhibition)
In order to be able to carry out these in vitro studies, synaptosomes are freshly isolated from areas of rat brain. A so-called “P2” fraction is used in each case, which is prepared according to the procedure of Gray and Whittaker (E. G. Gray and V. P. Whittaker (1962) J. Anat. 76, 79-88). For 5HT uptake, these vesicular particles are isolated from the hypothalamus of male rat brains. A detailed description of the method can be found in the literature (M. Ch. Frink, H.-H. Hennies, W. Englberger, M. Haurand and B. Wilffert (1996) Arzneim.-Forsch./Drug Res. 46 (III), 11, 1029-1036).

T1 sequence (Q63380 1-617): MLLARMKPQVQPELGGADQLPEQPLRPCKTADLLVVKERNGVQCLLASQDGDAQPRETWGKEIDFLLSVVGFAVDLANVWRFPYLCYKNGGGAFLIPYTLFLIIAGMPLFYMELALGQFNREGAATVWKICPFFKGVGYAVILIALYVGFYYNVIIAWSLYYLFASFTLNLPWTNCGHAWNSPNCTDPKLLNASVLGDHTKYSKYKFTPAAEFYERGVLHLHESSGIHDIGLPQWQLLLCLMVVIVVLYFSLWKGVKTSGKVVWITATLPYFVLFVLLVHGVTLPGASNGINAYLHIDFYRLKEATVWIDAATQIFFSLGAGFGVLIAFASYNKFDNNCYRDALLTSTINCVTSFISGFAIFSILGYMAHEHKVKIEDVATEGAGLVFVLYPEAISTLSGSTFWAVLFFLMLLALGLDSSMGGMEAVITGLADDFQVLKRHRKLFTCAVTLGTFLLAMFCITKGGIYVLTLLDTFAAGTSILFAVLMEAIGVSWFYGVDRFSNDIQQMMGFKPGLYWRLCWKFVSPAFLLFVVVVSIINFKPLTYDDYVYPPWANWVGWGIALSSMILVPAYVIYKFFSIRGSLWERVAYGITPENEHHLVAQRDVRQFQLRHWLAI
T2 sequence (P31652 whole entry): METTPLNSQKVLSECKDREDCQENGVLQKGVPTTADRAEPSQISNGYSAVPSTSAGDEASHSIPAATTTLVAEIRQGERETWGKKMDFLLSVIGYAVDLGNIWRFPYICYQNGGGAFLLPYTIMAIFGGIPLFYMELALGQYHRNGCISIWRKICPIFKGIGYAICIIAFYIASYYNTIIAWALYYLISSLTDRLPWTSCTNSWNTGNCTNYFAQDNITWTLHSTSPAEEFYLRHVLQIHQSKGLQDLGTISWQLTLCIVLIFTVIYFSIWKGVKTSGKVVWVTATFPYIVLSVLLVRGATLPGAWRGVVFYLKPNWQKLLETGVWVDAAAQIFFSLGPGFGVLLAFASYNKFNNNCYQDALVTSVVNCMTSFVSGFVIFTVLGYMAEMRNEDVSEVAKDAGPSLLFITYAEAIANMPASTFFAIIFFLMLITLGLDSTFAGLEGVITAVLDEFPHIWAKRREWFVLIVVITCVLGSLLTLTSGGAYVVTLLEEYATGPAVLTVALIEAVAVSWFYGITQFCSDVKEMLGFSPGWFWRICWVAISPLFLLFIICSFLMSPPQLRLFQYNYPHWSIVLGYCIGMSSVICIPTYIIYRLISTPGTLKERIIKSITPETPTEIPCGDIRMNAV

Take `CN(C)CC1CC2(CCC1(O)c1cccc(F)c1)NCCc1c2[nH]c2ccccc12` (centres unmarked) [Example 3, 1,1-(2-(Dimethylaminomethyl)-3-hydroxy-3-(3-fluorophenyl)-pentamethylene)-3,4-dihydro-1H-2,9-diazafluorene citrate]: the inhibition at 10 µM in experiment [1] worked out at 48%; in experiment [2], 75%. Consider `Cc1ccccc1C1(O)CCC2(CC1CN(C)C)NCCc1c2[nH]c2ccccc12` (centres unmarked) [Example 6, 1,1-(2-(Dimethylaminomethyl)-3-hydroxy-3-(2-methylphenyl)-pentamethylene)-3,4-dihydro-1H-2,9-diazafluorene citrate], for which, in experiment [2], the inhibition at 10 µM is 69%. As to `CN(C)CC1CC2(CCC1(O)c1ccccc1)OCCc1c2sc2ccccc12` (centres unmarked) [Example 7, 1,1-(2-(Dimethylaminomethyl)-3-hydroxy-3-phenyl-pentamethylene)-1,3,4,9-tetrahydro-pyrano[3,4-b]benzothiophene citrate], the inhibition at 10 µM in experiment [1] was 59%; in experiment [2], 88%. As to `CN(C)CC1CC2(CCC1(O)c1ccccc1)SCCc1c2[nH]c2ccccc12` (centres unmarked) [Example 9, 1,1-(2-(Dimethylaminomethyl)-3-hydroxy-3-phenyl-pentamethylene)-1,3,4,9-tetrahydro-2-thia-9-aza-fluorene citrate], 10 µM produced 81% inhibition in experiment [2].

On to `CN(C)CC1CC2(CCC1(O)c1cccc(F)c1)OCCc1c2sc2ccccc12` (centres unmarked) [Example 10, 1,1-(2-(Dimethylaminomethyl)-3-hydroxy-3-(3-fluorophenyl)-pentamethylene)-1,3,4,9-tetrahydro-pyrano[3,4-b]benzothiophene citrate], for which the inhibition at 10 µM amounted to 55% in experiment [1] and 88% in experiment [2]. As to `Cc1ccccc1C1(O)CCC2(CC1CN(C)C)OCCc1c2sc2ccccc12` (centres unmarked) [Example 11, 1,1-(2-(Dimethylaminomethyl)-3-hydroxy-3-(2-methylphenyl)-pentamethylene)-1,3,4,9-tetrahydro-pyrano[3,4-b]benzothiophene citrate], the inhibition at 10 µM in experiment [1] was 43%; in experiment [2], 85%. As for `CN(C)CC1CC2(CCC1(O)c1ccc(C(F)(F)F)cc1)OCCc1c2oc2ccccc12` (centres unmarked) [Example 13, 1,1-(2-(Dimethylaminomethyl)-3-hydroxy-3-(4-trifluoromethylphenyl)-pentamethylene)-1,3,4,9-tetrahydro-pyrano[3,4-b]benzofuran citrate], the inhibition at 10 µM in experiment [1] turned out to be 46%; in experiment [2], 60%. Regarding `CN(C)CC1CC2(CCC1(O)c1cccc(F)c1)SCCc1c2[nH]c2ccccc12` (centres unmarked) [Example 14, 1,1-(2-(Dimethylaminomethyl)-3-hydroxy-3-(3-fluorophenyl)-pentamethylene)-1,3,4,9-tetrahydro-2-thia-9-aza-fluorene citrate], the figures for the inhibition at 10 µM in experiment [1] and in experiment [2] were 46% and 61%, respectively. For the molecule `CN(C)CC1CC2(CCC1(O)c1ccc(C(F)(F)F)cc1)NCCc1c2[nH]c2ccccc12` (centres unmarked) [Example 15, 1,1-(2-(Dimethylaminomethyl)-3-hydroxy-3-(4-trifluoromethylphenyl)-pentamethylene)-3,4-dihydro-1H-2,9-diazafluorene dicitrate], the inhibition at 10 µM was 76% in experiment [1] and 83% in experiment [2]. `CN(C)CC1CC2(CCC1(O)c1cccc(F)c1)NCCc1c2[nH]c2cc(F)ccc12` (centres unmarked) [Example 16, 1,1-(2-(Dimethylaminomethyl)-3-hydroxy-3-(3-fluorophenyl)-pentamethylene)-7-fluoro-3,4-dihydro-1H-2,9-diazafluorene sesquicitrate] had an inhibition at 10 µM in experiment [2] of 72%. Take `COc1ccc2[nH]c3c(c2c1)CCNC31CCC(O)(c2ccccc2)C(CN(C)C)C1` (centres unmarked) [Example 17, 1,1-(2-(Dimethylaminomethyl)-3-hydroxy-3-phenyl-pentamethylene)-3,4-dihydro-6-methoxy-1H-2,9-diazafluorene citrate]: the inhibition at 10 µM in experiment [2] came to 57%. Molecule `COc1ccc2[nH]c3c(c2c1)CCOC31CCC(O)(c2ccc(SC)cc2)C(CN(C)C)C1` (centres unmarked) [Example 18, 1,1-(2-(Dimethylaminomethyl)-3-hydroxy-3-(4-methylthiophenyl)-pentamethylene)-1,3,4,9-tetrahydro-6-methoxy-pyrano[3,4-b]indole citrate] registered an inhibition at 10 µM in experiment [1] of 41%. For `CSc1ccc(C2(O)CCC3(CC2CN(C)C)OCCc2c3[nH]c3ccccc23)cc1` (centres unmarked) [Example 20, 1,1-(2-(Dimethylaminomethyl)-3-hydroxy-3-(4-methylthiophenyl)-pentamethylene)-1,3,4,9-tetrahydro-pyrano[3,4-b]indole citrate], in experiment [2], at 10 µM the inhibition was 58%. With `COc1ccc2[nH]c3c(c2c1)CCNC31CCC(O)(c2cccc(F)c2)C(CN(C)C)C1` (centres unmarked) [Example 21, 1,1-(2-(Dimethylaminomethyl)-3-hydroxy-3-(3-fluorophenyl)-pentamethylene)-3,4-dihydro-6-methoxy-1H-2,9-diazafluorene citrate], the results for the inhibition at 10 µM in experiment [1] and in experiment [2] were 44% and 57%, respectively. In turn, `COc1ccc2[nH]c3c(c2c1)CCNC31CCC(O)(c2ccc(C(F)(F)F)cc2)C(CN(C)C)C1` (centres unmarked) [Example 22, 1,1-(2-(Dimethylaminomethyl)-3-hydroxy-3-(4-trifluoromethylphenyl)-pentamethylene)-3,4-dihydro-6-methoxy-1H-2,9-diazafluorene citrate] displayed an inhibition at 10 µM in experiment [2] of 47%. As to `CSc1ccc(C2(O)CCC3(CC2CN(C)C)SCCc2c3[nH]c3ccccc23)cc1` (centres unmarked) [Example 23, 1,1-(2-(Dimethylaminomethyl)-3-hydroxy-3-(4-methylthiophenyl)-pentamethylene)-1,3,4,9-tetrahydro-2-thia-9-aza-fluorene sesquicitrate], at 10 µM the inhibition in experiment [2] was 50%. `Cc1ccccc1C1(O)CCC2(CC1CN(C)C)SCCc1c2[nH]c2ccccc12` (centres unmarked) [Example 24, 1,1-(2-(Dimethylaminomethyl)-3-hydroxy-3-(2-methylphenyl)-pentamethylene)-1,3,4,9-tetrahydro-2-thia-9-aza-fluorene citrate]: the results for the inhibition at 10 µM in experiment [1] and in experiment [2] were 42% and 75%, respectively. Turning to `CSc1ccc(C2(O)CCC3(CC2CN(C)C)NCCc2c3[nH]c3ccccc23)cc1` (centres unmarked) [Example 26, 1,1-(2-(Dimethylaminomethyl)-3-hydroxy-3-(4-methylthiophenyl)-pentamethylene)-3,4-dihydro-1H-2,9-diazafluorene citrate], the inhibition at 10 µM in experiment [1] worked out at 40%. With `CN(C)CC1CC2(CCC1(O)c1ccc(C(F)(F)F)cc1)OCCc1c2sc2ccccc12` (centres unmarked) [Example 29, 1,1-(2-(Dimethylaminomethyl)-3-hydroxy-3-(4-trifluoromethylphenyl)-pentamethylene)-1,3,4,9-tetrahydro-pyrano[3,4-b]benzothiophene citrate], the values for the inhibition at 10 µM in experiment [1] and in experiment [2] were 35% and 47%, respectively. Taken in the same sequence, the figures for `CSc1ccc(C2(O)CCC3(CC2CN(C)C)OCCc2c3oc3ccccc23)cc1` (centres unmarked) [Example 30, 1,1-(2-(dimethylaminomethyl)-3-hydroxy-3-(4-methylthiophenyl)-pentamethylene)-1,3,4,9-tetrahydro-pyrano[3,4-b]benzofuran citrate] were 37% and 83%. Consider `CSc1ccc(C2(O)CCC3(CC2CN(C)C)OCCc2c3sc3ccccc23)cc1` (centres unmarked) [Example 31, 1,1-(2-(dimethylaminomethyl)-3-hydroxy-3-(4-methylthiophenyl)-pentamethylene)-1,3,4,9-tetrahydro-pyrano[3,4-b]benzothiophene citrate], for which the inhibition at 10 µM worked out at 60% in experiment [1] and 82% in experiment [2]. `Cc1ccccc1C1(O)CCC2(CC1CN(C)C)NCCc1c2[nH]c2cc(F)ccc12` (centres unmarked) [Example 32, 1,1-(2-(Dimethylaminomethyl)-3-hydroxy-3-(2-methylphenyl)-pentamethylene)-7-fluoro-3,4-dihydro-1H-2,9-diazafluorene citrate]: the values for the inhibition at 10 µM in experiment [1] and in experiment [2] were 38% and 75%, respectively. As to `CN(C)CC1CC2(CCC1(O)c1ccc(C(F)(F)F)cc1)NCCc1c2[nH]c2cc(F)ccc12` (centres unmarked) [Example 33, 1,1-(2-(Dimethylaminomethyl)-3-hydroxy-3-(4-trifluoromethylphenyl)-pentamethylene)-7-fluoro-3,4-dihydro-1H-2,9-diazafluorene citrate], the inhibition at 10 µM stood at 68% in experiment [1] and 78% in experiment [2].

Take `CN(C)CC1CC2(CCC1(O)c1ccccc1)NCCc1c2[nH]c2cc(F)ccc12` (centres unmarked) [Example 35, 1,1-(2-(Dimethylaminomethyl)-3-hydroxy-3-phenyl-pentamethylene)-7-fluoro-3,4-dihydro-1H-2,9-diazafluorene dicitrate]: the inhibition at 10 µM in experiment [2] worked out at 67%.

By inhibition is commonly meant the share of the control response that was lost under treatment. A higher inhibition goes with strong suppression.
